Values joined by “and” are separate entries in the source; they are usually repeats but may differ in a detail not shown here. Equal values may be shown once.
Columns and labels:
[1] = test system: mixed culture of Gram-positive cocci, Gram-negative cocci, Gram-positive rods and Gram-negative rods; assay: Microbial contamination of dried Pigment Yellow 74 powder (Example 1 procedure) after mixing filter cake with bacterial culture; format: cell-based, bacteria; conditions: PY74, 3 parts dibutyl sebacate, plate 30° C. 48 hours
Method: (§1) Susceptibility to microbial contamination is assessed according to the following procedure:
(§2) Microbial contamination is assessed using individual bacteria of the morphological types, Gram-positive cocci, Gram-negative cocci, Gram-positive rods and Gram-negative rods which are maintained on Nutrient Agar slopes. When required, each is cultured in Nutrient broth at 30° C. until an organism count of >10^8 colony-forming units (cfu) per milliliter (ml) is reached. The individual cultures are then mixed in equal proportions to provide a mixed culture which is then used immediately.
(§3) 23.3 parts of acetic acid (80%) are added to a solution of 55 parts of acetoacet-o-anisidide dissolved in a solution of 25.5 parts of sodium hydroxide (47%) in 450 parts of water at a temperature of 0° C. The resultant slurry is reacted with 42.5 parts of p-nitro-o-anisidine previously diazotised with 45.4 parts of sodium nitrite (37%) and 56 parts of hydrochloric acid (36%) in the usual manner with simultaneous addition of sodium hydroxide solution (10%) to maintain pH 5.5-6.0. To the coupled slurry are then added 3 parts of dibutyl sebacate and 1 part of dimethylbenzyl-C12-14alkylammonium chloride (100% active) and the mixture is heated to a temperature of 100° C. and maintained at this temperature for one hour. The product is then filtered and washed with water under vacuum to remove soluble salts. The filter cake(still under vacuum suction) is mixed with a bacterial culture (10 ml of culture diluted to 100 ml with water)and vacuum suction is maintained until no further liquid emanates from the filter cake. The filter cake, without further washing, is then dried and converted to a powder by grinding. The powder is then passed through a 150 micron sieve.
The procedure described in Example 1 is repeated, but varying the type of biocide and amount of biocide used. The procedure for determining the extent of microbial contamination is as follows:
(§4) 10 mg of the sieved powder and one drop of sterile water are evenly spread on a Nutrient Agar plate with a glass spreader under aseptic conditions and the plate incubated at 30° C. for 48 hours, The number of bacterial colonies evident on each plate are then counted and expressed as the number of colony-forming units per gram (cfu/g).

[2] = test system: mixed culture of Gram-positive cocci, Gram-negative cocci, Gram-positive rods and Gram-negative rods; assay: Microbial contamination of dried Pigment Yellow 13 powder (Example 5 procedure) after mixing filter cake with bacterial culture; format: cell-based, bacteria; conditions: PY13, no DBS
Method: as §1, §2, §4
A solution of 8.9 parts of acetic acid (100%) and 15 parts hydrochloric acid (36%) in 100 parts water are added to a solution of 63 parts of acetoacet-m-xylidide dissolved in a solution of 25.2 parts of sodium hydroxide (50%) in 676 parts of water at a temperature of 20° C. The resultant slurry is reacted with 36.9 parts of a previously tetrazotised solution of 3,3′-dichlorobenzidine, with simultaneous addition of sodium hydroxide solution (10%) to maintain pH 4.5-5.5. […] The product is then filtered and washed with water under vacuum to remove soluble salts. The filter cake (still under vacuum suction) is mixed with a bacterial culture (10 ml of culture diluted to 100 ml with water) and vacuum suction is maintained until no further liquid emanates from the filter cake. The filter cake, without further washing, is then dried and converted to a powder by grinding. The powder is then passed through a 150 micron sieve.

[3] = test system: mixed culture of Gram-positive cocci, Gram-negative cocci, Gram-positive rods and Gram-negative rods; assay: Microbial contamination of dried Pigment Yellow 65 powder (Example 2 procedure) after mixing filter cake with bacterial culture; format: cell-based, bacteria
Method: as §1, §2, §4
as §3, with “(100%)” for “(80%)”, “o-nitro-p-anisidine” for “p-nitro-o-anisidine”, “cake (still” for “cake(still”, “water) and” for “water)and”
The procedure described in Example 2 is repeated, but varying the type of biocide and amount of biocide used.
The procedure described in Example 2 is repeated, but varying the type of biocide and amount of biocide used and omitting the DBS.

[4] = Colour strength on storage of pigment powder, tested in alkyd paint system; format: physicochemical
Method: The dried pigments are incorporated in a conventional manner into an alkyd paint system (SORBAL®P470, an alkyd resin ex DSM resins Ltd. having a solids content of 70%, white spirit, pigment and driers solution).
The dried powders are each divided into two portions. One portion is tested in the paint system immediately after drying. […] The tinting strengths are assessed visually and instrumentally.
The values correspond to the instrumentally-measured colour strength for the same pigment content in the paint.

[5] = PY65, omitting the DBS, 0.5 parts biocide
[6] = PY65, omitting the DBS, 1.0 parts biocide
[7] = PY65, omitting the DBS, 3.0 parts biocide
[8] = PY65, omitting the DBS, 5.0 parts biocide
[9] = PY65, with 3 parts dibutyl sebacate, 0.5 parts biocide
[10] = PY65, with 3 parts dibutyl sebacate, 1.0 parts biocide
[11] = PY65, with 3 parts dibutyl sebacate, 3.0 parts biocide
[12] = PY65, with 3 parts dibutyl sebacate, 5.0 parts biocide

For “Methylbenzyl-di-C16-18-alkylammonium chloride [Example M2HTB]”, the “microbial contamination, colony-forming units per gram” value (“microbial contamination … per gram” for short) ([1]; 0.5 parts biocide) was >10^4 cfu/g, the “microbial contamination … per gram” value ([1]; 1.0 parts biocide) was 0 cfu/g and the “microbial contamination … per gram” value ([1]; 3.0 parts biocide) was 0 cfu/g. The “microbial contamination … per gram” value ([1]; 5.0 parts biocide) was 0 cfu/g.

With Cn1sccc1=O [MIT, Methylisothiazolin-3-one] the “microbial contamination … per gram” value ([1]; 0.5 parts biocide) was 8.0 × 10^3 cfu/g, the “microbial contamination … per gram” value ([1]; 1.0 parts biocide) was 1.0 × 10^4 cfu/g and the “microbial contamination … per gram” value ([1]; 3.0 parts biocide) was 3.0 × 10^3 cfu/g. For the same compound, the “microbial contamination … per gram” value ([1]; 5.0 parts biocide) was 1.0 × 10^4 cfu/g, the “microbial contamination … per gram” value ([2]; 0.5 parts biocide) was >10^4 cfu/g and the “microbial contamination … per gram” value ([2]; 1.0 parts biocide) was 4.0 × 10^3 cfu/g. For the same compound, the “microbial contamination … per gram” value ([2]; 5.0 parts biocide) was 9.0 × 10^2 cfu/g, the “microbial contamination … per gram” value [3, 5] was >10^5 cfu/g and the “microbial contamination … per gram” value [3, 6] was >10^5 cfu/g. For the same compound, the “microbial contamination … per gram” value [3, 7] was >10^5 cfu/g, the “microbial contamination … per gram” value [3, 8] was >10^5 cfu/g and the “microbial contamination … per gram” value [3, 9] was >10^4 cfu/g. For the same compound, the “microbial contamination … per gram” value [3, 10] was >10^3 cfu/g, the “microbial contamination … per gram” value [3, 11] was >10^3 cfu/g and the “microbial contamination … per gram” value [3, 12] was 0 cfu/g.

In the case of CCCCCCCCn1sccc1=O [OTW, n-Octylisothiazolin-3-one], the “microbial contamination … per gram” value ([1]; 0.5 parts biocide) is reported as >10^4 cfu/g, the “microbial contamination … per gram” value ([1]; 1.0 parts biocide) is reported as 2.0 × 10^4 cfu/g and the “microbial contamination … per gram” value ([1]; 3.0 parts biocide) is reported as >10^4 cfu/g. For the same compound, the “microbial contamination … per gram” value ([1]; 5.0 parts biocide) was 1.4 × 10^3 cfu/g, the “microbial contamination … per gram” value ([2]; 0.5 parts biocide) was >10^4 cfu/g and the “microbial contamination … per gram” value ([2]; 1.0 parts biocide) was 5.0 × 10^3 cfu/g. For the same compound, the “microbial contamination … per gram” value ([2]; 3.0 parts biocide) was 0 cfu/g, the “microbial contamination … per gram” value ([2]; 5.0 parts biocide) was 0 cfu/g and the “microbial contamination … per gram” value [3, 5] was >10^4 cfu/g. For the same compound, the “microbial contamination … per gram” value [3, 6] was >10^4 cfu/g, the “microbial contamination … per gram” value [3, 7] was >10^3 cfu/g and the “microbial contamination … per gram” value [3, 8] was >10^3 cfu/g. The “microbial contamination … per gram” value [3, 9] was >10^4 cfu/g, the “microbial contamination … per gram” value [3, 10] was >10^4 cfu/g and the “microbial contamination … per gram” value [3, 11] was >10^4 cfu/g. The “microbial contamination … per gram” value [3, 12] was 0 cfu/g.

For O=c1[nH]sc2ccccc12 [LV, 1,2-Benzisothiazolin-3-one], the “microbial contamination … per gram” value ([1]; 0.5 parts biocide) was >10^5 cfu/g, the “microbial contamination … per gram” value ([1]; 1.0 parts biocide) was >10^5 cfu/g and the “microbial contamination … per gram” value ([1]; 3.0 parts biocide) was >10^5 cfu/g. For the same compound, the “microbial contamination … per gram” value ([1]; 5.0 parts biocide) was >10^5 cfu/g, the “microbial contamination … per gram” value ([2]; 0.5 parts biocide) was 3.0 × 10^3 cfu/g and the “microbial contamination … per gram” value ([2]; 1.0 parts biocide) was 4.0 × 10^2 cfu/g. For the same compound, the “microbial contamination … per gram” value ([2]; 3.0 parts biocide) was 1.0 × 10^2 cfu/g, the “microbial contamination … per gram” value ([2]; 5.0 parts biocide) was 6.0 × 10^2 cfu/g and the “microbial contamination … per gram” value [3, 5] was >10^4 cfu/g. The “microbial contamination … per gram” value [3, 6] was >10^4 cfu/g, the “microbial contamination … per gram” value [3, 7] was >10^4 cfu/g and the “microbial contamination … per gram” value [3, 8] was >10^4 cfu/g. For the same compound, the “microbial contamination … per gram” value [3, 9] was >10^4 cfu/g, the “microbial contamination … per gram” value [3, 10] was >10^4 cfu/g and the “microbial contamination … per gram” value [3, 11] was >10^4 cfu/g. The “microbial contamination … per gram” value [3, 12] was >10^4 cfu/g.

With COc1cc([N+](=O)[O-])ccc1/N=N/C(C(C)=O)C(=O)Nc1ccccc1OC (centres unmarked) [C.I. Pigment Yellow 74] the loss of strength ([4]; initial versus last storage time at ambient temperature) was 36 and 26 and 42, the “amount of Pigment required, 3 weeks” value ([4]; powder stored at ambient temperature 3 weeks) was 105 and 104 and the “amount of Pigment required, 6 weeks” value ([4]; powder stored at ambient temperature 6 weeks) was 105 and 108. The “colour strength, initial” value ([4]; powder tested immediately after drying, instrumentally-measured colour strength) was 141 and 134 and 146.

With “Benzyldimethyl-C16-18-alkylammonium chloride [DMHTB]” the “microbial contamination … per gram” value ([1]; 0.5 parts biocide) was >10^4 cfu/g, the “microbial contamination … per gram” value ([1]; 1.0 parts biocide) was 0 cfu/g and the “microbial contamination … per gram” value ([1]; 3.0 parts biocide) was 0 cfu/g. For the same compound, the “microbial contamination … per gram” value ([1]; 5.0 parts biocide) was 0 cfu/g.

With “Trimethyl-di-C12-14-alkylammonium chloride [Example C-35]” the “microbial contamination … per gram” value ([1]; 0.5 parts biocide) was >10^4 cfu/g, the “microbial contamination … per gram” value ([1]; 1.0 parts biocide) was 4.5 × 10^3 cfu/g and the “microbial contamination … per gram” value ([1]; 3.0 parts biocide) was 0 cfu/g. The “microbial contamination … per gram” value ([1]; 5.0 parts biocide) was 0 cfu/g.

With CCCCn1sc2ccccc2c1=O [DN, n-Butylbenzisothiazolin-3-one] the “microbial contamination … per gram” value ([1]; 0.5 parts biocide) was >10^4 cfu/g, the “microbial contamination … per gram” value ([1]; 1.0 parts biocide) was >10^4 cfu/g and the “microbial contamination … per gram” value ([1]; 3.0 parts biocide) was >10^3 cfu/g. For the same compound, the “microbial contamination … per gram” value ([1]; 5.0 parts biocide) was 0 cfu/g, the “microbial contamination … per gram” value [3, 9] was >10^4 cfu/g and the “microbial contamination … per gram” value [3, 10] was >10^4 cfu/g. For the same compound, the “microbial contamination … per gram” value [3, 11] was >10^4 cfu/g and the “microbial contamination … per gram” value [3, 12] was 8.0 × 10^2 cfu/g.

With “Methylbis-(2-hydroxyethyl)-C12-14-alkylammonium chloride [EthO-12]” the “microbial contamination … per gram” value ([1]; 0.5 parts biocide) was >10^4 cfu/g, the “microbial contamination … per gram” value ([1]; 1.0 parts biocide) was 0 cfu/g and the “microbial contamination … per gram” value ([1]; 3.0 parts biocide) was 0 cfu/g. The “microbial contamination … per gram” value ([1]; 5.0 parts biocide) was 0 cfu/g.

In the case of “Tetrakishydroxymethylphosphonium sulphate [THPS]”, the “microbial contamination … per gram” value ([1]; 0.5 parts biocide) is reported as >10^5 cfu/g, the “microbial contamination … per gram” value ([1]; 1.0 parts biocide) is reported as >10^5 cfu/g and the “microbial contamination … per gram” value ([1]; 3.0 parts biocide) is reported as >10^5 cfu/g. The “microbial contamination … per gram” value ([1]; 5.0 parts biocide) was >10^5 cfu/g, the “microbial contamination … per gram” value ([2]; 0.5 parts biocide) was >10^4 cfu/g and the “microbial contamination … per gram” value ([2]; 1.0 parts biocide) was >10^4 cfu/g. The “microbial contamination … per gram” value ([2]; 3.0 parts biocide) was >10^4 cfu/g, the “microbial contamination … per gram” value ([2]; 5.0 parts biocide) was >10^4 cfu/g and the “microbial contamination … per gram” value [3, 5] was >10^5 cfu/g. The “microbial contamination … per gram” value [3, 6] was >10^5 cfu/g, the “microbial contamination … per gram” value [3, 7] was >10^5 cfu/g and the “microbial contamination … per gram” value [3, 8] was >10^5 cfu/g. The “microbial contamination … per gram” value [3, 9] was >10^5 cfu/g, the “microbial contamination … per gram” value [3, 10] was >10^5 cfu/g and the “microbial contamination … per gram” value [3, 11] was >10^5 cfu/g. For the same compound, the “microbial contamination … per gram” value [3, 12] was >10^5 cfu/g.

In the case of “Dimethyl-di-C12-14-alkylammonium chloride [Example 2C-75]”, the “microbial contamination … per gram” value ([1]; 0.5 parts biocide) is reported as 8.0 × 10^4 cfu/g, the “microbial contamination … per gram” value ([1]; 1.0 parts biocide) is reported as 0 cfu/g and the “microbial contamination … per gram” value ([1]; 3.0 parts biocide) is reported as 0 cfu/g. For the same compound, the “microbial contamination … per gram” value ([1]; 5.0 parts biocide) was 0 cfu/g.

— patent publication US6361595B1, “Process for the preparation of pigment compositions” (Ciba Specialty Chemicals Corporation, priority 1999, dated 2002)
